The values that follow come from patent US11072632B2, “Inhibitors of 17β-HSD1, 17β-HSD3 and 17β-HSD10” (UNIVERSITÉ LAVAL, priority 2011, dated 2021).

As a reminder, the IC50 is the midpoint of a concentration-inhibition curve.

Where two headings read alike, the source gives them in different places.

The target in assay [1] is T1, 17β-HSD3 (Homo sapiens, UniProt P37058).
T1 construct: expressed in transfected cells; host or cells: HEK-293 (homogenate)
T1 sequence (P37058 1-310): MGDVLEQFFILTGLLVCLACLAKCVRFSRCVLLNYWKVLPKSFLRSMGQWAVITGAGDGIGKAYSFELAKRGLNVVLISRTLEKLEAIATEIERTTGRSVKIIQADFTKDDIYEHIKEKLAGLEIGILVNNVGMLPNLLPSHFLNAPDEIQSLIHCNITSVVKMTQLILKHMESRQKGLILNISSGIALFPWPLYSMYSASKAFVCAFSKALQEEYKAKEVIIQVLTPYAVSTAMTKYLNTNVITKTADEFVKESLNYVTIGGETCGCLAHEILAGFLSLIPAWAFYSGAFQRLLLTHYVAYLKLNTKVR
Put plainly: Inhibition of 17β-HSD3 in homogenated HEK-293 cells. Type of assay: biochemical.

Assay [2] has as its target T1, 17β-HSD3. Put plainly: Inhibition of 17β-HSD3 in intact HEK-293 cells. The note with it: for Intact cells (%), tested at 1 μM: Table 3, footnote b. Type of assay: cell-based.
The target of a further assay is T2, 17β-HSD10 (Homo sapiens, UniProt Q99714).
T2 construct: expressed in transfected cells
T2 sequence (Q99714 1-261): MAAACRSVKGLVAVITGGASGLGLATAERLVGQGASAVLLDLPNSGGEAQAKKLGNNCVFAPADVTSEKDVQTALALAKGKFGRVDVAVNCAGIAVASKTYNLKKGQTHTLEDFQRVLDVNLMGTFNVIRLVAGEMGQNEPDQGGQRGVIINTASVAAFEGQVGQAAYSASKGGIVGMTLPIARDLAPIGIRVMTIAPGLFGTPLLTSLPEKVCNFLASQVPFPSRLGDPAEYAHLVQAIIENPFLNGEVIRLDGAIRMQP
The experiment in a line: Inhibition of 17β-HSD10 in stably transfected HEK-293 whole cells (E2 into E1). Type of assay: cell-based.

In the next assay the target is T3, 17β-HSD1 (Homo sapiens, UniProt P14061).
T3 construct: endogenous in cells; host or cells: T-47D
T3 sequence (P14061 1-328): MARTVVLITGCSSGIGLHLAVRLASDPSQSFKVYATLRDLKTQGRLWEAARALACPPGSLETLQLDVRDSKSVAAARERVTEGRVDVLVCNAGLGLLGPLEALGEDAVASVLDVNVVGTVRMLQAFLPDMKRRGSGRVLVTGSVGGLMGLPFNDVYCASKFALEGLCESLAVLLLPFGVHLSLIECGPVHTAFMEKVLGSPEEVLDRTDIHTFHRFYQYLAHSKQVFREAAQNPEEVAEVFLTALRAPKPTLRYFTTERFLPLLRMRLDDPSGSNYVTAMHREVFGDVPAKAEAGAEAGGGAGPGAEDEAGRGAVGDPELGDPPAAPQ
The experiment in a line: Inhibition of 17β-HSD1 in T-47D intact cells (E1 into E2). The note with it: T47D. Type of assay: cell-based. As to the method:
T-47D cells were seeded in a 24-well plate (3000 cells/well) in medium supplemented with insulin (50 ng/mL) and 5% dextran-coated charcoal treated FBS rather than 10% FBS to remove remaining hormones. […] Each inhibitor was assessed in triplicate. After incubation, the culture medium was removed and labelled steroids (E1 and E2) extracted with 1 mL of diethyl ether. The organic phases were separated and evaporated to dryness using nitrogen. Residues were dissolved in dichloromethane and dropped on silica gel thin layer chromatography plates (EMD Chemicals Inc., Gibbstown, N.J., USA) and eluted with a toluene/acetone (4:1) solvent system. Substrate [^14C]-E1 and metabolite [^14C]-E2 were identified by comparison with reference steroids and quantified using a Storm 860 system (Molecular Dynamics, Sunnyvale, Calif., USA).
T-47D cells were seeded in a 24-well plate (3000 cells/well) in 990 μL of medium supplemented with insulin (50 ng/mL) and 5% dextran-coated charcoal-treated FBS, which was used rather than untreated 10% FBS, to remove the remaining steroid hormones. […] The final concentration of ethanol in the well was adjusted to 0.1%. Additionally, 5 μL of a solution of [^14C]-estrone (American Radiolabeled Chemicals, Inc., St. Louis, Mo., USA) was added to obtain a final concentration of 60 nM. […] After incubation, the culture medium was removed and labeled steroids (E1 and E2) were extracted with 1 mL of diethyl ether. The organic phases were evaporated to dryness with nitrogen. Residues were dissolved in dichloromethane and dropped on silica gel thin layer chromatography plates (EMD Chemicals Inc., Gibbstown, N.J., USA) and eluted with toluene/acetone (4:1) as solvent system. Substrate [^14C]-E1 and metabolite [^14C]-E2 were identified by comparison with reference steroids (E1 and E2) and quantified using the Storm 860 system (Molecular Dynamics, Sunnyvale, Calif., USA).

Setting [3] is: Table 3, read-out: Homo (%) (0.01 μM).
[4] abbreviates: Table 3, read-out: Homo (%) (0.1 μM).
Where [5] appears, read: HEK293, 1 h, Table 3, read-out: Intact cells (%) (0.1 μM).
Setting [6] is: HEK293, [14C]-E2 (1 μM) into [14C]-E1, intact HEK-293 cells, 1 μM, read-out: Inhibition (%) at 1 μM.
[7] abbreviates: [14C]-E2 (1 μM) into [14C]-E1, intact HEK-293 cells, 1 μM.

`C[C@]12CC[C@](O)(CN3CCN(Cc4ccccc4)CC3)C[C@@H]1CC[C@@H]1[C@@H]2CC[C@]2(C)C(=O)CC[C@@H]12` [Compound 7j, (3α,5α)-3-[(4-benzylpiperazin-1-yl)methyl]-3-hydroxyandrostan-17-one]: the inhibition at 0.01 µM on 17β-HSD3 [1] (Table 2 (17β-HSD3), [14C]-Δ4-dione 50 nM into [14C]-T, read-out: Homo (%) (0.01 μM)) is 35%; on 17β-HSD3 [1] (read-out: Homo (%) (0.01 μM), Table 3), 36%. Also, the inhibition at 0.1 µM at 17β-HSD3 [1] (read-out: Homo (%) (0.1 μM), Table 2 (17β-HSD3)) was determined as 72%; at 17β-HSD3 [1] (read-out: Homo (%) (0.1 μM), Table 3), 74%; on 17β-HSD3 [2] (HEK293, 1 h, read-out: Intact cells (%) (0.1 μM), Table 2 (17β-HSD3)) it was 37%; at 17β-HSD3 [2] (HEK293, 1 h, read-out: Intact cells (%) (0.1 μM), Table 3) it was 38%. In addition, the inhibition at 1 µM at 17β-HSD3 [1] (read-out: Homo (%) (1 μM), Table 2 (17β-HSD3), 1 μM) stood at 90%; at 17β-HSD3 [2] (HEK293, 1 h, read-out: Intact cells (%) (1 μM), Table 2 (17β-HSD3), 1 μM), 80%; on 17β-HSD10 (HEK293, read-out: Inhibition (%) at 1 μM), 57%.
As to `C[C@]12CC[C@](O)(CN3CCN(Cc4cccc(C(F)(F)F)c4)CC3)C[C@@H]1CC[C@@H]1[C@@H]2CC[C@]2(C)C(=O)CC[C@@H]12` [Compound 10a, (3α,5α)-3-hydroxy-3-({4-[3-(trifluoromethyl)benzyl]piperazin-1-yl}methyl)androstan-17-one], the inhibition at 0.01 µM at 17β-HSD3 [1] (setting [3]) stood at 51%. In addition, the results for the inhibition at 0.1 µM on 17β-HSD3 [1] (setting [4]) and on 17β-HSD3 [2] (setting [5]) were 88% and 52%, respectively. The inhibition at 1 µM on 17β-HSD10 (setting [6]) turned out to be 34%.
In the case of `C[C@]12CC[C@](O)(CN3CCN(Cc4ccccc4C(F)(F)F)CC3)C[C@@H]1CC[C@@H]1[C@@H]2CC[C@]2(C)C(=O)CC[C@@H]12` [Compound 10b, (3α,5α)-3-hydroxy-3-({4-[2-(trifluoromethyl)benzyl]piperazin-1-yl}methyl)androstan-17-one], the inhibition at 0.01 µM on 17β-HSD3 [1] (setting [3]) is 18%. Further, the inhibition at 0.1 µM at 17β-HSD3 [1] (setting [4]) was 86%; at 17β-HSD3 [2] (setting [5]), 20%. Moreover, the inhibition at 1 µM at 17β-HSD10 (setting [6]) is 50%.
As to `C[C@]12CC[C@](O)(CN3CCN(Cc4cccc(SC(F)(F)F)c4)CC3)C[C@@H]1CC[C@@H]1[C@@H]2CC[C@]2(C)C(=O)CC[C@@H]12` [Compound 10d, (3α,5α)-3-hydroxy-3-[(4-{3-[(trifluoromethyl)sulfanyl]benzyl}piperazin-1-yl)methyl]androstan-17-one], the inhibition at 0.01 µM at 17β-HSD3 [1] (setting [3]) was 3%. Moreover, the inhibition at 0.1 µM at 17β-HSD3 [1] (setting [4]) is 91%. In addition, the “Intact cells (%), tested at 1 μM” value at 17β-HSD3 [2] (1 μM) is on record as “N/A (62)^b %”. Further, the inhibition at 1 µM at 17β-HSD10 (setting [6]) was determined as 29%.
As to `C[C@]12CC[C@](O)(CN3CCN(Cc4cccc(Cl)c4)CC3)C[C@@H]1CC[C@@H]1[C@@H]2CC[C@]2(C)C(=O)CC[C@@H]12` [Compound 10e, (3α,5α)-3-{[4-(3-chlorobenzyl)piperazin-1-yl]methyl}-3-hydroxyandrostan-17-one], on 17β-HSD3 [1] (Table 3), the “Homo (%) (0.01 μM)” value is reported as 26% and the “Homo (%) (0.1 μM)” value worked out at 85%. Besides, the “Intact cells (%), tested at 1 μM” value on 17β-HSD3 [2] (1 μM) is on record as “N/A (75)^b %”. Moreover, at 17β-HSD10 (setting [7]), the “Inhibition (%) at 1 μM” value was 21%.
For the compound `COc1cccc(CN2CCN(C[C@@]3(O)CC[C@@]4(C)[C@@H](CC[C@@H]5[C@@H]4CC[C@]4(C)C(=O)CC[C@@H]54)C3)CC2)c1` [Compound 10f, (3α,5α)-3-hydroxy-3-{[4-(3-methoxybenzyl)piperazin-1-yl]methyl}androstan-17-one], at 17β-HSD3 [1] (setting [3]), the inhibition at 0.01 µM was 21%. Also, the inhibition at 0.1 µM at 17β-HSD3 [1] (setting [4]) is 83%; at 17β-HSD3 [2] (setting [5]) it was 47%. Besides, the inhibition at 1 µM at 17β-HSD10 (setting [6]) was found to be 59%. The concentration for half-maximal inhibition (IC50) at 17β-HSD10 (intact transfected HEK-293 cells, E2 1 μM, read-out: IC50) stood at 550 nM.
Turning to `C[C@]12CC[C@](O)(CN3CCN(Cc4cccnc4)CC3)C[C@@H]1CC[C@@H]1[C@@H]2CC[C@]2(C)C(=O)CC[C@@H]12` [Compound 10g, (3α,5α)-3-hydroxy-3-{[4-(pyridin-3-ylmethyl)piperazin-1-yl]methyl}androstan-17-one], the inhibition at 0.01 µM on 17β-HSD3 [1] (setting [3]) amounted to 10%. For the same compound, the inhibition at 0.1 µM on 17β-HSD3 [1] (setting [4]) came to 33%. Moreover, the “Intact cells (%), tested at 1 μM” value at 17β-HSD3 [2] (1 μM) was “N/A (63)^b %”. Moreover, the inhibition at 1 µM at 17β-HSD10 (setting [6]) came out at 37%.
Take `CC1CN(C[C@@]2(O)CC[C@@]3(C)[C@@H](CC[C@@H]4[C@@H]3CC[C@]3(C)C(=O)CC[C@@H]43)C2)C(C)CN1Cc1cccc(C(F)(F)F)c1` (stereo partly drawn) [Compound 11a, (3α,5α)-3-({(2ξ,5ξ)-2,5-dimethyl-4-[3-(trifluoromethyl)benzyl]piperazin-1-yl}methyl)-3-hydroxyandrostan-17-one]: at 17β-HSD3 [1] (Table 3), the “Homo (%) (0.01 μM)” value was determined as 31% and the “Homo (%) (0.1 μM)” value worked out at 89%. Moreover, the “Intact cells (%), tested at 1 μM” value at 17β-HSD3 [2] (1 μM) is “N/A (78)^b %”. At 17β-HSD10 (setting [7]), the “Inhibition (%) at 1 μM” value is on record as 26%.
`CC1CN(CC2(O)CCC3(C)C(CCC4C5CCC(=O)C5(C)CCC43)C2)C(C)CN1Cc1ccccc1C(F)(F)F` (stereo not drawn) [Compound 11b, (3α,5α)-3-({(2ξ,5ξ)-2,5-dimethyl-4-[2-(trifluoromethyl)benzyl]piperazin-1-yl}methyl)-3-hydroxyandrostan-17-one]: on 17β-HSD3 [1] (Table 3), the “Homo (%) (0.01 μM)” value was found to be 22% and the “Homo (%) (0.1 μM)” value is reported as 85%. For the same compound, at 17β-HSD3 [2] (Table 3), the “Intact cells (%) (0.1 μM)” value was 36%. For the same compound, the “Inhibition (%) at 1 μM” value at 17β-HSD10 (setting [7]) is listed as 25%.
Consider `CC1CN(C[C@@]2(O)CC[C@@]3(C)[C@@H](CC[C@@H]4[C@@H]3CC[C@]3(C)C(=O)CC[C@@H]43)C2)C(C)CN1Cc1ccc(C(F)(F)F)cc1` (stereo partly drawn) [Compound 11c, (3α,5α)-3-({(2ξ,5ξ)-2,5-dimethyl-4-[4-(trifluoromethyl)benzyl]piperazin-1-yl}methyl)-3-hydroxyandrostan-17-one], for which, at 17β-HSD3 [1] (Table 3), the “Homo (%) (0.01 μM)” value worked out at 14% and the “Homo (%) (0.1 μM)” value came to 87%. The “Intact cells (%) (0.1 μM)” value on 17β-HSD3 [2] (Table 3) was 36%. Also, the “Inhibition (%) at 1 μM” value at 17β-HSD10 (setting [7]) is on record as 24%.
As to `C[C@]12CC[C@@H]3c4ccc(CBr)cc4CC[C@H]3[C@@H]1C[C@H](Cc1cccc(C(N)=O)c1)[C@@H]2O` [III, 3-{[(16β,17β)-3-(bromomethyl)-17-hydroxyestra-1,3,5(10)-trien-16-yl]methyl}benzamide], the inhibition at 0.01 µM at 17β-HSD1 (read-out: Inhibition % (0.01 μM)) came to 20%. For the same compound, the inhibition at 0.1 µM on 17β-HSD1 (read-out: Inhibition % (0.1 μM)) came out at 36%; on 17β-HSD1 (read-out: Inhibition (0.1 μM)), 19%. Also, at 17β-HSD1 (read-out: Inhibition (1 μM)), the inhibition at 1 µM is 66%.
